32 compounds from BindingDB's records for doi:10.1021/jm00114a022 (Smithkline Beecham Pharmaceuticals Research and Development, 1991) can be followed below.

Where a SMILES comes first, the peptide text is derived from it. Bridges are numbered along the chain shown (N, C = ends). [ ]: non-standard residue; d: D form. NMeR = CN[C@@H](CCCNC(=N)N)C(=O)O; hArg = N=C(N)NCCCC[C@H](N)C(=O)O; Cit = NC(=O)NCCC[C@H](N)C(=O)O; Pen = CC(C)(S)[C@H](N)C(=O)O; Sar = CNCC(=O)O

Assay [1] in a line: Inhibition of canine platelet-rich plasma agregation induced by ADP.
Assay [2] in a line: Inhibition of human washed platelet aggregation.

As a reminder, the IC50 is the concentration at which inhibition is half-maximal. A higher IC50 goes with weaker potency. In assay [1], `CC(=O)N[C@@H](Cc1c[nH]cn1)C(=O)N[C@@H](Cc1c[nH]cn1)C(=O)N[C@@H](CC(C)C)C(=O)NCC(=O)NCC(=O)N[C@@H](C)C(=O)N[C@@H](CCCCN)C(=O)N[C@H]1CSSC(C)(C)[C@@H](C(N)=O)NC(=O)[C@H](CC(=O)O)NC(=O)CNC(=O)[C@H](CCCN=C(N)N)NC1=O` [1N-[1-formyl-(1S)-ethylcarbamoylmethylcarbamoylmethyl]-2-[2-(1H-5-imidazolyl)-1-[2-(1H-5-imidazolyl)-1-methylcarboxamido-(1S)-ethylcarboxamido]-(1S)-ethylcarboxamido]-4-methyl-(2S)-pentanamide [4-Carbamoyl-16-(2,6-diamino-hexanoylamino)-13-(3-guanidino-propyl)-3,3-dimethyl-6,9,12,15-tetraoxo-1,2-dithia-5,8,11,14-tetraaza-cycloheptadec-7-yl]-acetic acid] yielded an IC50 of 9.6 µM.

`CCNC(=O)[C@H](CO)NC(=O)[C@H](CC(=O)O)NC(=O)CNC(=O)[C@H](CCCNC(=N)N)NC(C)=O` (Ac-RGDS-NHEt) came in with an IC50 in assay [1] of more than 200 µM.

Regarding `CC(=O)N[C@@H](CCCNC(=N)N)C(=O)NCC(=O)N[C@@H](CC(=O)O)C(=O)NCCc1ccccc1`, the midpoint of inhibition in assay [1], the IC50, lay at 75.9 µM.

As for `CC(=O)N[C@@H](CCCNC(=N)N)C(=O)NCC(=O)N[C@@H](CC(=O)O)C(=O)N[C@@H](Cc1ccc(O)cc1)C(N)=O` (Ac-RGDY-NH2), in assay [1], half-maximal inhibition (IC50) required 102 µM.

`CC(=O)N[C@@H](CCCCN)C(=O)NCC(=O)N[C@@H](CC(=O)O)C(=O)N[C@@H](CO)C(N)=O` (Ac-KGDS-NH2) showed an IC50 in assay [1] of more than 200 µM.

Consider `CC(=O)N[C@H]1CSSC[C@@H](C(N)=O)NC(=O)[C@H](CC(=O)O)NC(=O)CNC(=O)[C@H](CCCN=C(N)N)NC(=O)CNC1=O`, for which, in assay [1], half-maximal inhibition (IC50) was put at 52 µM.

`CC(=O)N[C@@H](CCCNC(=N)N)C(=O)N[C@@H](C)C(=O)N[C@@H](CC(=O)O)C(=O)N[C@@H](CO)C(N)=O` (Ac-RADS-NH2): in assay [1], the IC50 is more than 200 µM.

For `CC(=O)N[C@@H](CCCNC(N)=O)C(=O)NCC(=O)N[C@@H](CC(=O)O)C(=O)N[C@@H](CO)C(N)=O` (Ac-[Cit]GDS-NH2), the IC50 in assay [1] is more than 200 µM.

As to `CC(=O)N[C@H]1CSSC(C)(C)[C@@H](C(N)=O)NC(=O)[C@H](CC(=O)O)NC(=O)CNC(=O)[C@H](CCCN=C(N)N)NC(=O)CNC1=O`, in assay [1], the IC50 was found to be 11.4 µM.

In assay [1], “Ac-HHLGGAKQAGDV-OH [1N-[1-[5-amino-1-formyl-(1S)-pentylcarbamoyl]-(1S)-ethylcarbamoylmethylcarbamoylmethyl]-2-[2-(1H-5-imidazolyl)-1-[2-(1H-5-imidazolyl)-1-methylcarboxamido-(1S)-ethylcarboxamido]-(1S)-ethylcarboxamido]-4-methyl-(2S)-pentanamide 2-[1-[1-[1-amino-3-carbamoyl-(1S)-propylcarboxamido]-(1S)-ethylcarboxamidomethylcarboxamido]-2-carboxy-(1S)-ethylcarboxamido]-3-methyl-(2S)-butanoic acid]” gave an IC50 of more than 200 µM.

Compound `CC(=O)N[C@@H]1C(=O)N(C)[C@@H](CCCN=C(N)N)C(=O)NCC(=O)N[C@@H](CC(=O)O)C(=O)N[C@H](C(N)=O)C(C)(C)SSC1(C)C` gave an IC50 in assay [1] of 0.37 µM.

In assay [1], `CC(=O)N[C@@H](CCCCN)C(=O)N[C@H]1CSSC(C)(C)[C@@H](C(=O)O)NC(=O)[C@H](CC(=O)O)NC(=O)CNC(=O)[C@H](C)NC1=O` (Ac-KCAGD[Pen]-OH; disulfide 2-6) gave an IC50 of more than 200 µM.

With `CC(=O)N[C@H]1CSSC[C@@H](C(N)=O)NC(=O)[C@H](CC(=O)O)NC(=O)CNC(=O)[C@H](CCCN=C(N)N)NC1=O`, inhibition in assay [1] was half-maximal at 16.2 µM (IC50).

The compound `CC(=O)N[C@@H](CCCNC(=N)N)C(=O)NCC(=O)N[C@@H](CCC(=O)O)C(=O)N[C@@H](CO)C(N)=O` displayed an IC50 in assay [1] of more than 200 µM.

Usually Ki stands for the equilibrium dissociation constant of an inhibitor or competing ligand from its target. High values mean weaker binding, low ones tighter binding. `CC(=O)N[C@H]1CSSC(C)(C)[C@@H](C(N)=O)NC(=O)[C@H](CC(=O)O)NC(=O)CNC(=O)[C@H](CCCN=C(N)N)N(C)C1=O` (Ac-C[NMeR]GD[Pen]-NH2; disulfide 1-5) displayed a Ki in assay [2] of 0.062 µM. Also, in assay [1], half-maximal inhibition (IC50) was put at 0.355 µM.

For `CC(=O)N[C@@H](CCCCN)C(=O)NCC(=O)N[C@@H](CCC(=O)O)C(=O)N[C@@H](CO)C(N)=O` (Ac-KGES-NH2), the IC50 in assay [1] is more than 200 µM.

For `CC(=O)N[C@@H]1C(=O)N[C@@H](CCCN=C(N)N)C(=O)NCC(=O)N[C@@H](CC(=O)O)C(=O)N[C@H](C(N)=O)CSSC1(C)C`, it took 7.97 µM to reach half-maximal inhibition in assay [1] (IC50).

Ac-RRGDF-NH2 yielded an IC50 in assay [1] of 113 µM.

In turn, `CC(=O)N[C@@H](CCCNC(=N)N)C(=O)N(C)CC(=O)N[C@@H](CC(=O)O)C(=O)N[C@@H](CO)C(N)=O` (Ac-R[Sar]DS-NH2) had an IC50 in assay [1] of more than 200 µM.

`CC(=O)N[C@@H](Cc1cnc[nH]1)C(=O)NCC(=O)N[C@@H](CC(=O)O)C(=O)N[C@@H](CO)C(N)=O` (Ac-HGDS-NH2) returned an IC50 in assay [1] of more than 200 µM.

In assay [1], `CC(=O)N[C@H]1CSSC(C)(C)[C@@H](C(N)=O)NC(=O)[C@H](CC(N)=O)NC(=O)CNC(=O)[C@H](CCCN=C(N)N)N(C)C1=O` (Ac-C[NMeR]GN[Pen]-NH2; disulfide 1-5) showed an IC50 of more than 200 µM.

In assay [1], `CC(=O)N[C@H]1CSSC(C)(C)[C@@H](C(N)=O)NC(=O)[C@H](CC(=O)O)NC(=O)CNC(=O)[C@H](CCCCN=C(N)N)NC1=O` (Ac-C[hArg]GD[Pen]-NH2; disulfide 1-5) came in with an IC50 of 3.85 µM.

`CC(=O)N[C@@H](CCCNC(=N)N)C(=O)NCC(=O)N[C@@H](CC(N)=O)C(=O)N[C@@H](CO)C(N)=O` (Ac-RGNS-NH2) displayed an IC50 in assay [1] of more than 200 µM.

`CC(=O)N[C@H](CCCCNC(=N)N)C(=O)NCC(=O)N[C@@H](CC(=O)O)C(=O)N[C@@H](CO)C(N)=O`: in assay [1], the IC50 is 68.2 µM.

`CC(=O)N[C@@H](CCCNC(=N)N)C(=O)NCC(=O)N[C@@H](CC(=O)O)C(N)=O` had an IC50 in assay [1] of 138 µM.

For `CC(=O)N[C@@H](CCCNC(=N)N)C(=O)N1CCC[C@H]1C(=O)N[C@@H](CC(=O)O)C(=O)N[C@@H](CO)C(N)=O` (Ac-RPDS-NH2), the IC50 in assay [1] was more than 200 µM.

The compound `CC(=O)N[C@H]1CSSC(C)(C)[C@@H](C(N)=O)NC(=O)[C@H](CC(=O)O)NC(=O)CNC(=O)[C@H](CCCCN)NC1=O` (Ac-CKGD[Pen]-NH2; disulfide 1-5) registered an IC50 in assay [1] of 55.3 µM.

For the compound `CC(=O)N[C@H]1CSSC(C)(C)[C@@H](C(N)=O)NC(=O)[C@H](CC(=O)O)NC(=O)[C@H](C)NC(=O)[C@H](CCCN=C(N)N)NC1=O` (Ac-CRAD[Pen]-NH2; disulfide 1-5), in assay [1], the midpoint of inhibition, the IC50, lay at 200 µM.

`CC(=O)N[C@H]1CSSC[C@@H](C(N)=O)NC(=O)[C@H](CO)NC(=O)[C@H](CC(=O)O)NC(=O)CNC(=O)[C@H](CCCN=C(N)N)NC1=O` (Ac-CRGDSC-NH2; disulfide 1-6) returned an IC50 in assay [1] of 32.7 µM.

`CC(=O)N[C@H]1CSSC(C)(C)[C@@H](C(N)=O)NC(=O)[C@H](CC(=O)O)NC(=O)CN(C)C(=O)[C@H](CCCN=C(N)N)NC1=O` showed an IC50 in assay [1] of 73.4 µM.

In turn, `CC(=O)N[C@@H](CCCNC(=N)N)C(=O)NCC(=O)N[C@@H](CC(=O)O)C(=O)N[C@H](C(N)=O)C(C)C` (Ac-RGDV-NH2) returned an IC50 in assay [1] of 55.5 µM.

The compound `CC(=O)N[C@@H](CCCNC(=N)N)C(=O)NCC(=O)N[C@H](CC(=O)N[C@@H](CO)C(N)=O)C(=O)O` yielded an IC50 in assay [1] of more than 200 µM.
